Test results: patent publication US8022206B2 (OSI Pharmaceuticals, LLC, priority 2008, dated 2011)

What was measured:
RON (human) = RON (human) (Homo sapiens, UniProt Q04912); assay: RON (human) AlphaScreen kinase assay, Km of ATP; assay type: biochemical; conditions: AlphaScreen, Km of ATP; read-out: RON biochemical IC50
Procedure, shortened: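 Detection used PT66 AlphaScreen beads added in Tris pH 7.5/NaCl/EDTA/BSA buffer, read after 1 h incubation. Vehicle-only DMSO wells served as controls.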

MET (human) = MET (human) (Homo sapiens, UniProt P08581); assay: MET (human) AlphaScreen kinase assay, Km of ATP; assay type: biochemical; conditions: AlphaScreen, Km of ATP; read-out: Met biochemical IC50
Chain of MET (human) (P08581 25-1390): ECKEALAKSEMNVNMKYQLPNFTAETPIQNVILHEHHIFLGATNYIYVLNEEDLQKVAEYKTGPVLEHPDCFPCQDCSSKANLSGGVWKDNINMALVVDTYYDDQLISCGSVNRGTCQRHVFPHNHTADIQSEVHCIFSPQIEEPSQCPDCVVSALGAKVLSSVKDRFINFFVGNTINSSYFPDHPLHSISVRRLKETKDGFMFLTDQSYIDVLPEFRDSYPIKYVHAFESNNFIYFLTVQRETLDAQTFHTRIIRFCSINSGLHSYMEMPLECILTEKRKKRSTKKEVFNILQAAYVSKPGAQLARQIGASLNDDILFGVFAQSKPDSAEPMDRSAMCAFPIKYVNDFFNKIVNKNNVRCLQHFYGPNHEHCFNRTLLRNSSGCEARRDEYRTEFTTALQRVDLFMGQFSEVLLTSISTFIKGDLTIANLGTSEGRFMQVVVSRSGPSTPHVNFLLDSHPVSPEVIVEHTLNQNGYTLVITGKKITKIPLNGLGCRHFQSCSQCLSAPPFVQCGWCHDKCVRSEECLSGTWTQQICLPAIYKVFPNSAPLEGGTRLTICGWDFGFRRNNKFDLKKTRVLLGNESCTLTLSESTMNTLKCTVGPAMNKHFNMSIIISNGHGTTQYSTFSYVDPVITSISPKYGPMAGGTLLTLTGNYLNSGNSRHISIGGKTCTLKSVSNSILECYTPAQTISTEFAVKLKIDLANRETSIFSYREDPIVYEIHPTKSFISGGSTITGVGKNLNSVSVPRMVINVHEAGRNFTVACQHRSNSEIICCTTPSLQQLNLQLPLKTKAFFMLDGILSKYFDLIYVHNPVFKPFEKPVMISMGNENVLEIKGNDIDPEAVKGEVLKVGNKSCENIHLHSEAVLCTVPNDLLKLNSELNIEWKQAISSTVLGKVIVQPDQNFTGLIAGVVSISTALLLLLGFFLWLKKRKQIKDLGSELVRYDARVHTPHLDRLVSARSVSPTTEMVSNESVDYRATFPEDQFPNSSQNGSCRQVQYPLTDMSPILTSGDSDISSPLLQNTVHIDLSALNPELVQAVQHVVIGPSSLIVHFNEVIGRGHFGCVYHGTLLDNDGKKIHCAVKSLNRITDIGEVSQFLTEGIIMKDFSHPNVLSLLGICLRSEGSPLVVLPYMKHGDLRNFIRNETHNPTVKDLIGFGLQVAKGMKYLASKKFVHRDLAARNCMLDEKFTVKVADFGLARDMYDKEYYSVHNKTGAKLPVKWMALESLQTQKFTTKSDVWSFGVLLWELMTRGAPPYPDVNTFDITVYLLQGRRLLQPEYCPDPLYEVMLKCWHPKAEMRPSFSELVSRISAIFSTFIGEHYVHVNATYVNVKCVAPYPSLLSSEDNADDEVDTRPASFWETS
Procedure, shortened: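 Human MET at lot-optimised concentration in 50 mM Tris pH 7.4 buffer with 1 mM DTT, compound at 1% DMSO final; enzyme starts the reaction, 60 min at RT.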

Chain of RON (human) (Q04912 25-1400): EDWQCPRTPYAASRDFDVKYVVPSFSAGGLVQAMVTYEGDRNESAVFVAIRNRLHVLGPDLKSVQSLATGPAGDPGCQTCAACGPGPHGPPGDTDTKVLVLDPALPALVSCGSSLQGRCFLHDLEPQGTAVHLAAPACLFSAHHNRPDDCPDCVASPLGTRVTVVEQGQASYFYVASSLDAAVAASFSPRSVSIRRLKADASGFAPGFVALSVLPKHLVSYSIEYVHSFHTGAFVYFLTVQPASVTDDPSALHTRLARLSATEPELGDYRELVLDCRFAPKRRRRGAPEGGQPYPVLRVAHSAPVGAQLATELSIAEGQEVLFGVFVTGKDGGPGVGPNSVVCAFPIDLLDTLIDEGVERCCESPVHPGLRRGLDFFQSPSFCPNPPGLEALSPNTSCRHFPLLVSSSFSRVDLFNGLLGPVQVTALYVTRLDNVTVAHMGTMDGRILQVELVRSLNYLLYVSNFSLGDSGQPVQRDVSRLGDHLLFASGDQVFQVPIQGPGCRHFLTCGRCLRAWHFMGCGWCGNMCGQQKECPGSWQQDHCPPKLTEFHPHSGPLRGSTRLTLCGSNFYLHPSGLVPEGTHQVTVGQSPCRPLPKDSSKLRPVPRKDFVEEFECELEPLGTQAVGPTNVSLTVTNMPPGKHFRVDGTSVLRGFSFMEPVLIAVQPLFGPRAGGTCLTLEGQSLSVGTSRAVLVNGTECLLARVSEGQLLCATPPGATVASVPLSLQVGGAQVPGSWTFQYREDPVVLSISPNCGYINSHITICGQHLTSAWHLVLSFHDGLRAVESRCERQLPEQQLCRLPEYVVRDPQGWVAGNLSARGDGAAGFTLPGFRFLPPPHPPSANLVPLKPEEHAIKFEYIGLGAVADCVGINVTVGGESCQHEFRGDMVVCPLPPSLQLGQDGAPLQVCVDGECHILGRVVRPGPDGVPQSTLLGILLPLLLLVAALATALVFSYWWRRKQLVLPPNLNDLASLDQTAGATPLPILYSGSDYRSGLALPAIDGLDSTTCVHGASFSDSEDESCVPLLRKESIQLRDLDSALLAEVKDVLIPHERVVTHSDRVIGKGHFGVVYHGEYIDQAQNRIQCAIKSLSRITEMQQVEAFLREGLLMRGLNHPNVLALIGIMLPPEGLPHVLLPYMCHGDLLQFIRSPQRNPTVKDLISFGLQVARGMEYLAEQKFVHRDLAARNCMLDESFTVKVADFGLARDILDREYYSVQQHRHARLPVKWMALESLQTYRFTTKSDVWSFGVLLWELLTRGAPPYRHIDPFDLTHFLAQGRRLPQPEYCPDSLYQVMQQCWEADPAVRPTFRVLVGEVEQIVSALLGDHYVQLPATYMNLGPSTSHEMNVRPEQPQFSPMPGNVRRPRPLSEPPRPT

SMILES: C[C@@H](Oc1c(N)ncc2c(C3=CCN(C(=O)[C@@H]4C[C@@H](F)CN4)CC3)coc12)c1c(Cl)ccc(F)c1Cl [Example 235, (4-{6-Amino-7-[(R)-1-(2,6-dichloro-3-fluorophenyl)ethoxy]-furo[3,2-c]pyridin-3-yl}-3,6-dihydro-2H-pyridin-1-yl)-((2S,4R)-4-fluoropyrrolidin-2-yl)-methanone]
- IC50 (RON (human)): < 500 nM
- IC50 (MET (human)): < 500 nM

SMILES: C[C@@H](Oc1c(N)ncc2c(C3=CCN(C(=O)C4CCCCN4C)CC3)coc12)c1c(Cl)ccc(F)c1Cl (stereo partly drawn) [Example 236, (4-{6-Amino-7-[(R)-1-(2,6-dichloro-3-fluorophenyl)ethoxy]-furo[3,2-c]pyridin-3-yl}-3,6-dihydro-2H-pyridin-1-yl)-(1-methylpiperidin-2-yl)methanone]
- IC50 (RON (human)): < 500 nM
- IC50 (MET (human)): < 500 nM

SMILES: C[C@@H](Oc1c(N)ncc2c(C3=CCN(C(=O)[C@H]4CCNC4)CC3)coc12)c1c(Cl)ccc(F)c1Cl [Example 237, (4-{6-Amino-7-[(R)-1-(2,6-dichloro-3-fluorophenyl)ethoxy]-furo[3,2-c]pyridin-3-yl}-3,6-dihydro-2H-pyridin-1-yl)-(S)-pyrrolidin-3-ylmethanone]
- IC50 (RON (human)): < 500 nM
- IC50 (MET (human)): < 500 nM

SMILES: C[C@@H](Oc1c(N)ncc2c(C3=CCN(C(=O)[C@@H]4CCCCN4)CC3)coc12)c1c(Cl)ccc(F)c1Cl [Example 238, (4-{6-Amino-7-[(R)-1-(2,6-dichloro-3-fluorophenyl)ethoxy]-furo[3,2-c]pyridin-3-yl}-3,6-dihydro-2H-pyridin-1-yl)-(S)-piperidin-2-ylmethanone]
- IC50 (RON (human)): < 500 nM
- IC50 (MET (human)): < 500 nM

SMILES: C[C@@H](Oc1c(N)ncc2c(C3=CCN(C(=O)[C@H]4CCCCN4)CC3)coc12)c1c(Cl)ccc(F)c1Cl [Example 239, (4-{6-Amino-7-[(R)-1-(2,6-dichloro-3-fluorophenyl)ethoxy]-furo[3,2-c]pyridin-3-yl}-3,6-dihydro-2H-pyridin-1-yl)-(R)-piperidin-2-ylmethanone]
- IC50 (RON (human)): < 500 nM
- IC50 (MET (human)): < 500 nM

SMILES: C[C@@H](Oc1c(N)ncc2c(C3=CCN(C(=O)[C@H]4CCCNC4)CC3)coc12)c1c(Cl)ccc(F)c1Cl [Example 240, (4-{6-Amino-7-[(R)-1-(2,6-dichloro-3-fluorophenyl)ethoxy]-furo[3,2-c]pyridin-3-yl}-3,6-dihydro-2H-pyridin-1-yl)-(S)-piperidin-3-ylmethanone]
- IC50 (RON (human)): < 500 nM
- IC50 (MET (human)): < 500 nM

SMILES: C[C@@H](Oc1c(N)ncc2c(C3=CCN(C(=O)[C@@H]4CCCNC4)CC3)coc12)c1c(Cl)ccc(F)c1Cl [Example 241, (4-{6-Amino-7-[(R)-1-(2,6-dichloro-3-fluorophenyl)ethoxy]-furo[3,2-c]pyridin-3-yl}-3,6-dihydro-2H-pyridin-1-yl)-(R)-piperidin-3-ylmethanone]
- IC50 (RON (human)): < 500 nM
- IC50 (MET (human)): < 500 nM

SMILES: C[C@@H](Oc1c(N)ncc2c(C3=CCN(C(=O)[C@H]4CCCN4)CC3)coc12)c1c(Cl)ccc(F)c1Cl [Example 242, (4-{6-Amino-7-[(R)-1-(2,6-dichloro-3-fluorophenyl)ethoxy]-furo[3,2-c]pyridin-3-yl}-3,6-dihydro-2H-pyridin-1-yl)-(R)-pyrrolidin-2-ylmethanone]
- IC50 (RON (human)): < 500 nM
- IC50 (MET (human)): < 500 nM

SMILES: C[C@@H](Oc1c(N)ncc2c(-c3cccc(NS(=O)(=O)c4ccccc4)c3)coc12)c1c(Cl)ccc(F)c1Cl [Example 243, N-(3-{6-Amino-7-[(R)-1-(2,6-dichloro-3-fluorophenyl)ethoxy]-furo[3,2-c]pyridin-3-yl}phenyl)benzenesulfonamide]
- IC50 (RON (human)): 5000 to 20000 nM
- IC50 (MET (human)): 500 to 5000 nM

SMILES: CCCS(=O)(=O)Nc1cccc(-c2coc3c(O[C@H](C)c4c(Cl)ccc(F)c4Cl)c(N)ncc23)c1 [Example 244, Propane-1-sulfonic acid (3-{6-amino-7-[(R)-1-(2,6-dichloro-3-fluorophenyl)ethoxy]-furo[3,2-c]pyridin-3-yl}phenyl)amide]
- IC50 (RON (human)): 500 to 5000 nM
- IC50 (MET (human)): 500 to 5000 nM

SMILES: CCS(=O)(=O)Nc1cccc(-c2coc3c(O[C@H](C)c4c(Cl)ccc(F)c4Cl)c(N)ncc23)c1 [Example 245, Ethanesulfonic acid (3-{6-amino-7-[(R)-1-(2,6-dichloro-3-fluorophenyl)ethoxy]-furo[3,2-c]pyridin-3-yl}phenyl)amide]
- IC50 (RON (human)): 500 to 5000 nM
- IC50 (MET (human)): 500 to 5000 nM

SMILES: CCCCS(=O)(=O)Nc1cccc(-c2coc3c(O[C@H](C)c4c(Cl)ccc(F)c4Cl)c(N)ncc23)c1 [Example 246, Butane-1-sulfonic acid (3-{6-amino-7-[(R)-1-(2,6-dichloro-3-fluorophenyl)ethoxy]-furo[3,2-c]pyridin-3-yl}phenyl)amide]
- IC50 (RON (human)): 5000 to 20000 nM
- IC50 (MET (human)): 500 to 5000 nM

SMILES: C[C@@H](Oc1c(N)ncc2c(-c3cccc(NS(=O)(=O)c4cccs4)c3)coc12)c1c(Cl)ccc(F)c1Cl [Example 247, Thiophene-2-sulfonic acid (3-{6-amino-7-[(R)-1-(2,6-dichloro-3-fluorophenyl)-ethoxy]-furo[3,2-c]pyridin-3-yl}phenyl)amide]
- IC50 (RON (human)): 5000 to 20000 nM
- IC50 (MET (human)): 500 to 5000 nM

SMILES: C[C@@H](Oc1c(N)ncc2c(-c3cccc(NS(=O)(=O)CCC(F)(F)F)c3)coc12)c1c(Cl)ccc(F)c1Cl [Example 248, 3,3,3-Trifluoropropane-1-sulfonic acid (3-{6-amino-7-[(R)-1-(2,6-dichloro-3-fluorophenyl)ethoxy]-furo[3,2-c]pyridin-3-yl}phenyl)amide]
- IC50 (RON (human)): 5000 to 20000 nM
- IC50 (MET (human)): 500 to 5000 nM

SMILES: C[C@@H](Oc1c(N)ncc2c(-c3cccc(NS(=O)(=O)CCN(C)C)c3)coc12)c1c(Cl)ccc(F)c1Cl [Example 249, 2-Dimethylaminoethanesulfonic Acid (3-{6-amino-7-[(R)-1-(2,6-dichloro-3-fluorophenyl)ethoxy]furo[3,2-c]pyridin-3-yl}phenyl)amide]
- IC50 (RON (human)): 500 to 5000 nM
- IC50 (MET (human)): 500 to 5000 nM

SMILES: CNCC(=O)N1CC=C(c2coc3c(O[C@H](C)c4c(Cl)ccc(F)c4Cl)c(N)ncc23)CC1 [Example 250, 1-[4-{6-Amino-7-[(1R)-1-(2,6-dichloro-3-fluorophenyl)ethoxy]furo[3,2-c]pyridin-3-yl}-3,6-dihydropyridin-1(2H)-yl]-2-(methylamino)ethanone]
- IC50 (RON (human)): < 500 nM
- IC50 (MET (human)): < 500 nM

SMILES: C[C@H](N)C(=O)N1CC=C(c2coc3c(O[C@H](C)c4c(Cl)ccc(F)c4Cl)c(N)ncc23)CC1 [Example 251, (2S)-2-Amino-1-[4-{6-amino-7-[(1R)-1-(2,6-dichloro-3-fluoro-phenyl)ethoxy]furo[3,2-c]pyridin-3-yl}-3,6-dihydropyridin-1(2H)-yl]propan-1-one]
- IC50 (RON (human)): < 500 nM
- IC50 (MET (human)): < 500 nM

SMILES: C[C@@H](N)C(=O)N1CC=C(c2coc3c(O[C@H](C)c4c(Cl)ccc(F)c4Cl)c(N)ncc23)CC1 [Example 252, (2R)-2-Amino-1-[4-{6-amino-7-[(1R)-1-(2,6-dichloro-3-fluoro-phenyl)ethoxy]furo[3,2-c]pyridin-3-yl}-3,6-dihydropyridin-1(2H)-yl]propan-1-one]
- IC50 (RON (human)): < 500 nM
- IC50 (MET (human)): < 500 nM

SMILES: C[C@@H](Oc1c(N)ncc2c(C3=CCN(C(=O)CN)CC3)coc12)c1c(Cl)ccc(F)c1Cl [Example 253, 2-Amino-1-[4-{6-amino-7-[(1R)-1-(2,6-dichloro-3-fluorophenyl)ethoxy]furo[3,2-c]pyridin-3-yl}-3,6-dihydropyridin-1(2H)-yl]ethanone]
- IC50 (RON (human)): < 500 nM
- IC50 (MET (human)): < 500 nM

SMILES: C[C@@H](Oc1c(N)ncc2c(C3=CCN(C(=O)[C@@H](N)CO)CC3)coc12)c1c(Cl)ccc(F)c1Cl [Example 254, (2S)-2-Amino-1-[4-{6-amino-7-[(1R)-1-(2,6-dichloro-3-fluoro-phenyl)ethoxy]furo[3,2-c]pyridin-3-yl}-3,6-dihydropyridin-1(2H)-yl]-3-hydroxypropan-1-one]
- IC50 (RON (human)): < 500 nM
- IC50 (MET (human)): < 500 nM

SMILES: C[C@@H](Oc1c(N)ncc2c(C3=CCN(C(=O)[C@H](N)CO)CC3)coc12)c1c(Cl)ccc(F)c1Cl [Example 255, (2R)-2-Amino-1-[4-{6-amino-7-[(1R)-1-(2,6-dichloro-3-fluoro-phenyl)ethoxy]furo[3,2-c]pyridin-3-yl}-3,6-dihydropyridin-1(2H)-yl]-3-hydroxypropan-1-one]
- IC50 (RON (human)): < 500 nM
- IC50 (MET (human)): < 500 nM

SMILES: C[C@@H](Oc1c(N)ncc2c(C3=CCN(C(=O)[C@@H](N)Cc4ccccc4)CC3)coc12)c1c(Cl)ccc(F)c1Cl [Example 256, (2S)-2-Amino-1-[4-{6-amino-7-[(1R)-1-(2,6-dichloro-3-fluoro-phenyl)ethoxy]furo[3,2-c]pyridin-3-yl}-3,6-dihydropyridin-1(2H)-yl]-3-phenylpropan-1-one]
- IC50 (RON (human)): 500 to 5000 nM
- IC50 (MET (human)): < 500 nM

SMILES: C[C@@H](Oc1c(N)ncc2c(C3=CCN(C(=O)[C@H](N)Cc4ccccc4)CC3)coc12)c1c(Cl)ccc(F)c1Cl [Example 257, (2R)-2-Amino-1-[4-{6-amino-7-[(1R)-1-(2,6-dichloro-3-fluoro-phenyl)ethoxy]furo[3,2-c]pyridin-3-yl}-3,6-dihydropyridin-1(2H)-yl]-3-phenylpropan-1-one]
- IC50 (RON (human)): 500 to 5000 nM
- IC50 (MET (human)): < 500 nM

SMILES: C[C@@H](Oc1c(N)ncc2c(C3=CCN(C(=O)C(N)C(F)(F)F)CC3)coc12)c1c(Cl)ccc(F)c1Cl (stereo partly drawn) [Example 260, 2-Amino-1-[4-{6-amino-7-[(1R)-1-(2,6-dichloro-3-fluorophenyl)-ethoxy]furo[3,2-c]pyridin-3-yl}-3,6-dihydropyridin-1(2H)-yl]-3,3,3-trifluoropropan-1-one]
- IC50 (RON (human)): 500 to 5000 nM
- IC50 (MET (human)): 500 to 5000 nM

SMILES: C[C@@H](Oc1c(N)ncc2c(C3=CCN(C(=O)[C@@H](N)c4ccccc4)CC3)coc12)c1c(Cl)ccc(F)c1Cl [Example 261, (2S)-2-Amino-1-[4-{6-amino-7-[(1R)-1-(2,6-dichloro-3-fluoro-phenyl)ethoxy]furo[3,2-c]pyridin-3-yl}-3,6-dihydropyridin-1(2H)-yl]-2-phenylethanone]
- IC50 (RON (human)): 500 to 5000 nM
- IC50 (MET (human)): < 500 nM
